Holding throughout (format): cell-based, human
Assay [1] concerns naive CD4 and CD8 T cells. Kind of assay: Induction of early activation markers CD25/CD69, soluble versus nanomatrix-conjugated CD3. As to the method: (§1) FIG. 6: Comparison of soluble CD3 or CD28 antibodies to CD3 or CD28 antibodies conjugated to nanomatrices. Naive CD4 and CD8 T cells were isolated and stimulated in vitro in the presence of IL-2 using soluble CD3 (0-10000 ng/mL) w/o CD28 (A) or in the presence of soluble CD28 (200 ng/ml) (B) and compared to CD28 conjugated to nanomatrix (200 ng/ml) and analysed for early activation markers CD25/CD69 on day 5 or for expansion (C) on day 7. 2 donors were analysed in duplicates.
IL-2 was added to all cultures. […] In contrast the CD3 coated nanomatrix (100 ng/ml CD3) induced CD25/CD69 expression in 40-70% of the cells.

Assay [2] relates to naive T cells. Kind of assay: Expansion of naive T cells, soluble versus nanomatrix-conjugated CD28 in presence of soluble CD3. Conditions: soluble CD3 alone, day 7. How it is done: as §1
We also tested the effect of conjugation of CD28 antibodies to the nanomatrix. Since the effects of costimulation are best visualized under suboptimal CD3 stimulation, we titrated CD28 either soluble or conjugated to the nanomatrix in the presence of soluble CD3 to a culture of naïve T cells. […] In the presence of soluble CD28 however a 2-6 fold expansion was detectable but only at the highest tested dose of CD28 (10000 ng/ml).

Assay [3] concerns CD8+ T cell subsets and PBMC from melanoma patients. Description: Fold expansion of MART-1 TCR transduced cultures. Conditions: IL2, day 13-15 after stimulation. The text has this:
CD8^+ T cell subsets from freshly isolated PBMC from melanoma patients were isolated and the stimulated with coated CD3 plus soluble CD28 (CD3+CD28 in the graph) or with CD3/CD28/CD2 coated MACSiBeads (MACSiBeads in the graph) or with CD3/CD28 Nanomatrix in the presence of IL2. After 2 days of stimulation cells have been transduced to express MART-1 TCR. In the graph is reported the fold expansion of each culture at day 13-15 after stimulation.
One important application for activating and expanding T cells and in particular purified cell subsets is their genetic manipulation, e.g. to introduce a certain antigen receptor with specificity for tumor antigens. We have used nanomatrices to activate purified naïve (TN, CD62L+CD45RA+), central memory (TCM, CD62L+CD45RA−) and effector (TEM, CD62L−CD45RA−) T cells and transduced them using a retroviral vector expressing a TCR specific for MART-1, a tumor antigen. To test the relative frequency of transgene expression in these T cell subsets we performed MHC-peptide Class I tetramer staining. All T cell subsets are efficiently transduced (>50%) independent on the stimulatory conditions we tested (FIG. 7). We also compared the in vitro expansion of the transduced T cells. As shown in FIG. 8 after 10 days we observed no differences with regard to expansion of the three subsets under all conditions. […]

“soluble CD3: soluble anti-CD3 antibody (CD3 antibodies, clone OKT3)”: in assay [1] (10-10000 ng/ml, without CD28, IL-2, day 5), the “up-regulation of early activation markers CD25 and CD69” value is “did not induce any significant up-regulation”. In addition, the CD25/CD69 expression in assay [1] (highest tested doses 100-10000 ng/ml, with soluble CD28 200 ng/ml, IL-2, day 5) is 20-40 % of the cells. Further, in assay [2], the “expansion of naive T cells” value is listed as “did not induce any expansion”. Also, in assay [3], the fold expansion was 57.61±17.75.

The record behind these values is patent US20150240204A1, “METHOD FOR POLYCLONAL STIMULATION OF T CELLS BY MOBILE NANOMATRICES” (MILTENYI BIOTEC GMBH, priority 2012, published 2015).
